Three compounds from article PMC12658632, “Discovery of Sesamolin as a Potential Anti-Helicobacter pylori Agent by Virtual Screening against the Essential Response Regulator HsrA with In Vitro Evaluation” (ACS Omega, 2025) can be followed below.

One data set concerns the target T1, HsrA (Helicobacter pylori, UniProt O25684).
T1 construct: gene HP_1043
Briefly: SPR (Biacore T200, […] model); also EMSA inhibition of HsrA-DNA binding.

In data set [1] the target is T2, HsrA (Helicobacter pylori (strain of the recombinant protein not stated)) (UniProt O25684).
T2 sequence: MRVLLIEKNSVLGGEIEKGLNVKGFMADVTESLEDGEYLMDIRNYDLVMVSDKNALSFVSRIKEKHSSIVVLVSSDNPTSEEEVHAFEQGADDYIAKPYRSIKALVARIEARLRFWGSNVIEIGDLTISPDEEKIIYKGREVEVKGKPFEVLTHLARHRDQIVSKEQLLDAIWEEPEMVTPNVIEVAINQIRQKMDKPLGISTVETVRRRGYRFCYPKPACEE
Description: EMSA. The settings on record: EMSA binding buffer (Beyotime GS005, composition and pH not stated), 25 uL, 4 uM HsrA, 50 ng each DNA, 25 C 30 min; 5% native PAGE, 0.5x TBE.

Like-named read-outs stand apart in the source and are kept apart here.

T1 sequence (O25684 entry or part of it): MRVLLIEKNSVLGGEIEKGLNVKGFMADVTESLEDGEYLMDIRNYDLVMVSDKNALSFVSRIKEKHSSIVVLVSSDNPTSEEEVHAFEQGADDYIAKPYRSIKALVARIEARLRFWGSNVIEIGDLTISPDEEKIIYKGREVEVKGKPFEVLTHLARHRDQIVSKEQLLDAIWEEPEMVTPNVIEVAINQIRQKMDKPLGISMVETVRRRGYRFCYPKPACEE

For the compound `c1cc2c(cc1O[C@H]1OC[C@H]3[C@@H]1CO[C@@H]3c1ccc3c(c1)OCO3)OCO2` [compound 3, Sesamolin], the affinity at HsrA, expressed as Kd, was 17.1 nM.

For the compound `c1c2c(cc3c1OCO3)-c1cc3ccc4c(c3c[n+]1CC2)OCO4` [compound 6, Coptisine], the dissociation constant (Kd) at HsrA (read-out: Kd) was 400 nM. For “GCCAAAACGCCTAAAGCCATGATAACCTTTTTCATCGTTTGTCTCCTCTACTTATCAAAATGATCTTAAAATGATACAATTACAAGTTTAAGTTTTGCTTAAAAATGAAGTGAAAATGAGAGAAATAAATATGATTTTATACATTCATATCCCCTTTTGTGAAAATAAATGCGGTTATTGCGCTTTCAA (double strand) [hp1227 promoter probe]”, the binding entry in data set [1] is “binds”.

The term Kd denotes the concentration at which binding is half-saturated.
